From patent publication US12527779B2, “Prostaglandin E2 (PGE2) EP4 receptor antagonists” (Domain Therapeutics, priority 2019, dated 2026)

Legend:
Pan02 tumor cells = assay: In vivo anti-tumoral activity of Example 166 in a Pan02 tumor model; design: species or system C57BL/6 mice
Method: Pan02 tumor cells were maintained in vitro as a monolayer culture in RPM11640 medium supplemented with 10% fetal bovine serum at 37° C. in an atmosphere of 5% CO2 in air. The cells were routinely subcultured twice weekly by trypsin-EDTA treatment. The cells in an exponential growth phase were harvested and counted for tumor inoculation. Female C57BL/6 mice were inoculated subcutaneously in the right rear flank region with Pan02 tumor cells (3×10^6) in 0.1 ml of PBS for tumor development on day 0. Tumor volumes were measured thrice per week in two dimensions using a caliper, and the volume was expressed in mm^3 using the formula: “V=(L×W×W)/2”, where V is tumor volume, L is tumor length (the longest tumor dimension) and W is tumor width (the longest tumor dimension perpendicular to L). When the mean tumor size reached approximately 100 mm^3, mice were randomly allocated into groups (10 mice per group) and treated with or without the compound of Example 166 (3, 10, 30, 100 or 300 mg/kg, po, QD, 5% DMSO/95% (10% w/v solution of HP-β-CD in water) v/v) for at least 3 weeks). Animals were checked daily for morbidity and mortality. During routine monitoring, the animals were checked for any effects on tumor growth and treatments on behavior such as mobility, food and water consumption, body weight gain/loss (body weights were measured thrice per week), eye/hair matting and any other abnormalities. Dosing as well as tumor and body weight measurements were conducted in a Laminar Flow Cabinet. The body weights and tumor volumes were monitored by using StudyDirector™ software (version 3.1.399.19).

[1] = biological target: T1, human EP4 (hEP4) receptor (Homo sapiens, UniProt P35408); assay: In vitro human EP4 functional antagonist activity using BRET biosensors (cAMP EPAC biosensor, TCS2510 stimulation); type: cell-based; settings: antagonist activity vs EC60 TCS2510, hEP4 in HEK-293 T cells
T1 construct: expressed in transfected cells; host or cells: HEK-293 T cells, transient co-transfection with polyethylenimine
T1 sequence (P35408 whole entry): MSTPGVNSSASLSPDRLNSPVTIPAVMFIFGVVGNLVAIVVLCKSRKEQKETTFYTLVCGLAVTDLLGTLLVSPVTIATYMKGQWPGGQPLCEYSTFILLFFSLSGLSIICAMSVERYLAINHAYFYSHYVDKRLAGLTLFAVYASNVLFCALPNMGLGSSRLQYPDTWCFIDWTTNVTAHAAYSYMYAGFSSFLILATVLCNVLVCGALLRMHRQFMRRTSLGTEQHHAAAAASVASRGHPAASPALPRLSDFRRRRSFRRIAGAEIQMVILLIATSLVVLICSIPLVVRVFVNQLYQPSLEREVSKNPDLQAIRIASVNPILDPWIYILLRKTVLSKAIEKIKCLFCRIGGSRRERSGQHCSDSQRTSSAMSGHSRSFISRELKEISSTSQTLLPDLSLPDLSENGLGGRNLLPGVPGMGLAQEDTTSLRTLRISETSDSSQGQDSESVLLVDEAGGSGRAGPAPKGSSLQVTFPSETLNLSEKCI
Outline: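 HEK-293T cells transiently co-transfected with hEP4 and EPAC cAMP BRET biosensor (luciferase/GFP), assayed 48 h later in HEPES-buffered saline after 1 h at 22 °C. After 5 min with compound, cells stimulated with EC60 TCS2510 and BRET read for 10 min; IC50 from 10-point, 4.5-log variable-slope fits, duplicate, two experiments.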

IC50 [1]: < 100 nM
SMILES: C[C@H](NC(=O)C1(N2CC[C@@H](Oc3cccc(C(F)(F)F)c3)C2)CC1)c1ccc(C(=O)O)cc1.Cl [Example 166, 4-[(1S)-1-[[1-[(3R)-3-[3-(Trifluoromethyl)phenoxy]pyrrolidin-1-yl]cyclopropane-1-carbonyl]amino]ethyl]benzoic acid, hydrochloride]
Tumor Growth Inhibition TGI (%) (Pan02 tumor cells; 3 mg/kg po QD, day 0): 0.0%
Tumor Growth Inhibition TGI (%) (Pan02 tumor cells; 3 mg/kg po QD, day 4): 8.2%
Tumor Growth Inhibition TGI (%) (Pan02 tumor cells; 3 mg/kg po QD, day 7): 2.9%
Tumor Growth Inhibition TGI (%) (Pan02 tumor cells; 3 mg/kg po QD, day 9): 2.3%
Tumor Growth Inhibition TGI (%) (Pan02 tumor cells; 3 mg/kg po QD, day 11): −8.0%
Tumor Growth Inhibition TGI (%) (Pan02 tumor cells; 3 mg/kg po QD, day 14): −5.6%
Tumor Growth Inhibition TGI (%) (Pan02 tumor cells; 3 mg/kg po QD, day 16): 10.7%
Tumor Growth Inhibition TGI (%) (Pan02 tumor cells; 3 mg/kg po QD, day 18): 9.1%
Tumor Growth Inhibition TGI (%) (Pan02 tumor cells; 3 mg/kg po QD, day 21): −1.4%
Tumor Growth Inhibition TGI (%) (Pan02 tumor cells; 10 mg/kg po QD, day 0): 0.0%
Tumor Growth Inhibition TGI (%) (Pan02 tumor cells; 10 mg/kg po QD, day 4): 14.3%
Tumor Growth Inhibition TGI (%) (Pan02 tumor cells; 10 mg/kg po QD, day 7): −2.3%
Tumor Growth Inhibition TGI (%) (Pan02 tumor cells; 10 mg/kg po QD, day 9): 0.8%
Tumor Growth Inhibition TGI (%) (Pan02 tumor cells; 10 mg/kg po QD, day 11): 2.4%
Tumor Growth Inhibition TGI (%) (Pan02 tumor cells; 10 mg/kg po QD, day 14): 11.1%
Tumor Growth Inhibition TGI (%) (Pan02 tumor cells; 10 mg/kg po QD, day 16): 21.1%
Tumor Growth Inhibition TGI (%) (Pan02 tumor cells; 10 mg/kg po QD, day 18): 22.4%
Tumor Growth Inhibition TGI (%) (Pan02 tumor cells; 10 mg/kg po QD, day 21): 16.2%
Tumor Growth Inhibition TGI (%) (Pan02 tumor cells; 30 mg/kg po QD, day 0): 0.0%
Tumor Growth Inhibition TGI (%) (Pan02 tumor cells; 30 mg/kg po QD, day 4): 17.5%
Tumor Growth Inhibition TGI (%) (Pan02 tumor cells; 30 mg/kg po QD, day 7): 19.0%
Tumor Growth Inhibition TGI (%) (Pan02 tumor cells; 30 mg/kg po QD, day 9): 16.3%
Tumor Growth Inhibition TGI (%) (Pan02 tumor cells; 30 mg/kg po QD, day 11): −8.2%
Tumor Growth Inhibition TGI (%) (Pan02 tumor cells; 30 mg/kg po QD, day 14): 5.7%
Tumor Growth Inhibition TGI (%) (Pan02 tumor cells; 30 mg/kg po QD, day 16): 9.7%
Tumor Growth Inhibition TGI (%) (Pan02 tumor cells; 30 mg/kg po QD, day 18): 13.9%
Tumor Growth Inhibition TGI (%) (Pan02 tumor cells; 30 mg/kg po QD, day 21): 7.4%
Tumor Growth Inhibition TGI (%) (Pan02 tumor cells; 100 mg/kg po QD, day 0): 0.0%
Tumor Growth Inhibition TGI (%) (Pan02 tumor cells; 100 mg/kg po QD, day 4): 17.1%
Tumor Growth Inhibition TGI (%) (Pan02 tumor cells; 100 mg/kg po QD, day 7): 21.4%
Tumor Growth Inhibition TGI (%) (Pan02 tumor cells; 100 mg/kg po QD, day 9): 20.8%
Tumor Growth Inhibition TGI (%) (Pan02 tumor cells; 100 mg/kg po QD, day 11): 23.7%
Tumor Growth Inhibition TGI (%) (Pan02 tumor cells; 100 mg/kg po QD, day 14): 44.3%
Tumor Growth Inhibition TGI (%) (Pan02 tumor cells; 100 mg/kg po QD, day 16): 42.2%
Tumor Growth Inhibition TGI (%) (Pan02 tumor cells; 100 mg/kg po QD, day 18, hydrochloride): 48.2%
Tumor Growth Inhibition TGI (%) (Pan02 tumor cells; 100 mg/kg po QD, day 21): 42.6%
Tumor Growth Inhibition TGI (%) (Pan02 tumor cells; 300 mg/kg po QD, day 0): 0.0%
Tumor Growth Inhibition TGI (%) (Pan02 tumor cells; 300 mg/kg po QD, day 4): 14.3%
Tumor Growth Inhibition TGI (%) (Pan02 tumor cells; 300 mg/kg po QD, day 7): −2.5%
Tumor Growth Inhibition TGI (%) (Pan02 tumor cells; 300 mg/kg po QD, day 9): −0.7%
Tumor Growth Inhibition TGI (%) (Pan02 tumor cells; 300 mg/kg po QD, day 11): −5.6%
Tumor Growth Inhibition TGI (%) (Pan02 tumor cells; 300 mg/kg po QD, day 14): 11.8%
Tumor Growth Inhibition TGI (%) (Pan02 tumor cells; 300 mg/kg po QD, day 16): 24.7%
Tumor Growth Inhibition TGI (%) (Pan02 tumor cells; 300 mg/kg po QD, day 18, hydrochloride): 32.9%
Tumor Growth Inhibition TGI (%) (Pan02 tumor cells; 300 mg/kg po QD, day 21): 32.8%
